According to US8716231B2, “Use of benzo-fused heterocycle sulfamide derivatives for the treatment of pain” (Janssen Pharmaceutica NV, priority 2005, dated 2014):
“Also recorded” adds a separate entry of the source.

Legend:
[1] = test system: formalin-induced inflammatory-mediated pain response (licking of injected hind-paw); experiment: Mouse Formalin Assay (NINDS); assay type: in vivo, mice
Description: The mouse formalin test is an acute and chronic model for testing the ability of a test compound for the treatment of pain.
In the Mouse Formalin Test, 0.5% formalin was injected s.c. into the plantar region of the hind-paw of adult male mice to induce an inflammatory-mediated pain response. Pain was expressed as licking of the injected area in a bi-modal manner—acute and chronic phase. The acute phase occurred immediately and lasted approximately […] post-injection, representing direct stimulation of pain fibers. Licking behavior resumes approximately 10 mins later (˜20 min post injection) and lasted 10-15 min, representing the chronic phase hypothesized to be caused by the release of inflammatory mediators such as cytokines.
Activity in the acute phase of the formalin test is an indicator of acute pain believed to correlate with peripheral pain pathways.
Compound #8 was evaluated in the Mouse Formalin Test as described above. […] For the acute phase the decrease was 52% from control (p<0.01), while for the chronic phase the decrease was 43% from control (p<0.01).

[2] = test system: Taxol®-induced mechanical allodynia; experiment: Taxol Induced Peripheral Neuropathy Model (pilot), Von Frey testing; assay type: in vivo, Sprague-Dawley rats; conditions: 100 mg/kg po daily for 12 days with Taxol 2 mg/kg i.p. days 1, 3, 5, 7; Day 12
Description: In addition, the compound's effects on spontaneous locomotor activity was measured.
The animals were housed in polycarbonate plastic cages, 2 animals per cage, at a temperature of 18-26° C., 30-70% humidity, 12-hour light/dark cycle, with food and water available ad libityum.
On days 1, 3, 5, and 7, the rats received an ip (intraperitoneal) injection of Taxol® (2 mg/kg).
Two behavioral tests were performed: measurement of tactile sensitivity and spontaneous locomotor activity. At baseline and on Days 5 and 12 post-Taxol® injection, the animals underwent Von Frey testing for mechanical allodynia (according to the procedure as described in Chaplan, S R, Bach, F W, Pogrel, J W, Chung, J M, Yaksh, T L. Quantitative assessment of tactile allodynia in the rat paw. J Neurosci Meth, 53:55-63, 1994). Tactile sensitivity (i.e. mechanical allodynia) was measured using calibrated filaments touched to the plantar surface of the affected limb to determine paw withdrawal threshold. Briefly, the rats were placed in a Plexiglas cage with a wire mesh bottom and allowed to acclimate for 10 minutes. Once the animals settled, the plantar surface of the right hind paw was touched with a 2.0 g von Frey filament. […] Data were analyzed using two-way ANOVA, one-way ANOVA and Dunnett's test, with statistical significance at p<0.05.

[3] = test system: paclitaxel-evoked mechano-allodynia and mechano-hyperalgesia; experiment: Taxol Induced Peripheral Neuropathy Model (longer term study, Example 20); assay type: in vivo, Sprague-Dawley rats
Description: Paclitaxel (Taxol®, Bristol-Myers-Squibb; 6 mg/ml in a 50:50 mixture of Cremophor and ethanol) was diluted just before use with saline to a concentration of 2 mg/ml and injected IP in a volume of 1 ml/kg) on four alternate days (D0, D2, D4, and D6).
Adult male Sprague-Dawley rats (Harlan, Indianapolis, Ind.; Frederick, Md. breeding colony) were caged on sawdust bedding in groups of 3-4 with food and water available ad libitum and a 12:12 hr light-dark cycle.
Group 3 was treated with an equal volume of vehicle, daily, starting on D0 (the same day as the beginning of paclitaxel dosing).
The animals were habituated to the testing environment on three separate days and then three daily baseline sessions were given to measure the normal response rate to stimulation with von Frey hairs exerting 4 g or 15 g of pressure (4 gVFH and 15 gVFH). Normal rats rarely, if ever, withdraw from stimulation with 4 gVFH; thus, a post-paclitaxel increase in responding to this stimulus is indicative of mechano-allodynia. Normal rats withdraw from stimulation with 15 gVFH 10-20% of the time; thus an increased response frequency to this stimulus is indicative of mechano-hyperalgesia.
The animals were positioned beneath upturned plastic mouse cages atop an elevated platform with wire-mesh flooring. Each VFH was applied to the glabrous skin of the mid-heel and the presence or absence of a withdrawal response was noted. This was repeated 5 times on each hind paw and the animal's responses were summarized as a percent response score (e.g., 5 withdrawal responses to 15gVFH stimulation would yield a score of 50%). Behavior was assessed by an observer who was blind as to group assignment.
Behavioral tests for paclitaxel's effects began on day 13 (D13) and were repeated on D15, D17, D21, D24, D28, D31, D35 and D38. […] For these days the drug was given at 0900 h and behavioral tests began at 1300 h. Significant paclitaxel-evoked mechano-allodynia and mechano-hyperalgesia were expected to develop 10-14 days after the last injection of paclitaxel.

[4] = test system: formalin-induced hyperalgesia (paw licking); experiment: Formalin-Induced Hyperalgesia Model; assay type: in vivo, CF-1 mice; conditions: Mus musculus; i.p., 2 hours before formalin; 95% CI range 53.6-225 mg/kg; read-out: median effective dose (ED50) for a 50% or greater reduction in AUC, secondary phase (phase 2, inflammatory)
Description: Adult male CF-1 mice weighing 2-0 g were obtained from Charles River (Wilmington, Mass.). All animals were house on a 12:12 light:dark cycle and permitted free access to both food and water, except when removed from the home cage for experimental procedures.
In this model, the injection of formalin elicits a distinct biphasic behavioral profile characterized by the mouse licking the affected paw. Immediately after the injection, the mouse licks the paw for about 10 minutes. This corresponds to phase 1 (acute response) and is followed by a brief latency period where there is little behavioral activity. A more prolonged period of about 20-30 minutes of paw licking ensues which constitutes phase 2 (inflammatory).
Two hours after administration, formalin was injected sub-dermally (20 μL, 27 gauge needle) into the plantar surface of the right hind foot. The bevel of the needle was placed facing down toward the skin surface. […] The cumulative length of licking for each 2 minute period was recorded. […] Animals were euthanized following the conclusion of the experiment.
Area under the curve (AUC) determinations were made using the GraphPad Prism Version 3.03. Total AUC was calculated for both the dosed and control groups for both acute and inflammatory phases. The AUC of individual animals for each phase was also calculated and converted to a percentage of total AUC of control.

[5] = 110 mg/kg, i.p. 15 min prior to formalin injection, p<0.01
[6] = both 60 mg/kg and 120 mg/kg PO daily for 20 days from D0, paclitaxel 2 mg/kg IP D0, D2, D4, D6

SMILES: NS(=O)(=O)NC[C@H]1COc2cc(Cl)ccc2O1 [Compound #8, (2S)-(−)-N-(6-Chloro-2,3-dihydro-benzo[1,4]dioxin-2-ylmethyl)-sulfamide]
- chronic phase decrease from control ([1]; 60 mg/kg i.p., p<0.01): 40%
- acute phase decrease from control ([1]; 60 mg/kg i.p., p<0.05): 30%
- acute phase decrease from control [1, 5]: 52%
- chronic phase decrease from control [1, 5]: 43%
- effect on Taxol-induced mechanical allodynia [2]: appeared to potentiate the pain response compared to Taxol® alone; however, this difference was not statistically significant; also recorded: ineffective in preventing the allodynia
- continuation of suppressive effect after the last injection ([3]; 60 mg/kg and 120 mg/kg PO daily): approximately 11 days
- side-effects ([3]; 60 mg/kg and 120 mg/kg PO daily for 20 days): no apparent side-effects
- development of mechano-allodynia (4 gVFH test) [3, 6]: suppressed the development of mechano-allodynia and mechano-hyperalgesia
- development of mechano-hyperalgesia (15 gVFH test) [3, 6]: suppressed the development of mechano-allodynia and mechano-hyperalgesia
- ED50 [4]: 101 mg/kg
